Test results taken from patent US8455394B2 (priority 2009, dated 2013).

Key:
[1] = tested on: Leptosphaeria nodorum (LEPTNO); assay: In vitro fungitoxicity assay against Leptosphaeria nodorum in copper-minus and copper-plus liquid medium (growth inhibition, light scattering); format: cell-based; conditions: Parastagonospora nodorum; compound 0.05 μg/mL, copper-minus medium, 72 h at 25° C.; read-out: LEPTNO % Inhn. Minus Copper Observed
Method: In vitro fungitoxicity assays against Leptosphaeria nodorum (LEPTNO) were conducted using the liquid growth medium described by Coursen and Sisler (American Journal of Botany 1960, 47, 541-549) except that copper micronutrient, normally included as CuSO4, was omitted. The medium, termed “copper-minus”, was prepared by dissolving 10 g glucose, 1.5 g K2HPO4, 2 g KH2PO4 and 1 g (NH4)2SO4 in 1 liter of deionized water and treating the solution with 0.5 g Chelex 100 resin (Bio-Rad Analytical grade, 50-100 mesh, sodium form, cat#142-2822) by stirring at room temperature for 1 h. MgSO4.7H2O (0.5 g) was added, and stirring was continued for a further hour. Trace elements (minus CuSO4), and vitamins described by Coursen and Sisler were added from concentrated stock solutions and the entire medium was sterilized by filtration. Medium containing copper was prepared by adding CuCl2.2H2O to the copper-minus medium at 20 μM. […]
LEPTNO was grown on potato dextrose agar in 9 cm diameter petri dishes for 7 days. […] Microtiter plates were inoculated with 100 μL of this spore suspension and the plates incubated at 25° C. for 72 h before assessing fungal growth by measuring light scattering in a NepheloStar plate reader. Growth inhibition was determined by comparing growth in the presence of test compound with growth in control wells lacking test compound. […]

[2] = tested on: Phytophthora capsici; assay: In vitro fungitoxicity assay against Phytophthora capsici in copper-minus AS and copper-plus AS medium; format: cell-based; conditions: CuCl2 50 uM without any test compound, across experiments
Method: In vitro fungitoxicity assays against Phytophthora capsici were conducted using the asparagine-sucrose (AS) medium described in Canadian Journal of Microbiology 1961, 7, 15-25, except that copper micronutrient, normally included as CuSO4, was omitted. The medium, termed “copper-minus AS”, was prepared by dissolving 2 g asparagine, 0.43 g KH2PO4, 0.3 g K2HPO4, 0.4 mL of a 0.5 mg/mL thiamine-HCl solution and 15 g sucrose in 1 liter of deionized water and treating the solution with 0.5 g Chelex 100 resin (Bio-Rad Analytical grade, 50-100 mesh, sodium form, cat#142-2822) by stirring at room temperature for 1 h. The pH was adjusted to 6.4, then MgSO4.7H2O (100 μg/mL), FeSO4.7H2O (1 μg/mL), CaCl2 (50 μg/mL), ZnSO4.7H2O (1 μg/mL), NaMoO4.2H2O (0.2 μg/mL) and MnCl2.4H2O (0.2 μg/mL) were added and the entire medium was sterilized by filtration. […]
Phytophthora capsici was grown on petri plates, 9 cm in diameter, containing 15 mL V-8 agar, pH 7.0, containing 200 mL V-8 juice, 4 g CaCO3, and 20 g agar per liter. […] Microtiter plates were inoculated with 100 μL of spore suspension and incubated at 25° C. for 48 h before assessing fungal growth by measuring light scattering in a NepheloStar plate reader. Growth inhibition was determined by comparing growth in the presence of test compound with growth in control wells lacking test compound. […]

SMILES	inhibition of growth at 0.05 µg/mL [1]	% Inhn (copper chloride alone; printed in column Minus copper Observed) [2]
O=C(N/N=C/c1cccc(F)c1O)c1ccccc1 [Compound 1]	4.4%	–
O.O.[Cl][Cu][Cl] [CuCl2, CuCl2.2H2O]	–	4.5 ± 7.9%
